Test results: patent US11214803B2, “Modulators of YAP1 expression” (Ionis Pharmaceuticals, Inc., priority 2019, dated 2022)
Strand notation (5' to 3'): a small letter for the sugar, then the base; units joined by * are phosphorothioate-linked, units joined directly phosphodiester-linked; [ ] holds rarer units or linkages, { } end groups; capitals alone tell only the bases. e = 2'-O-(2-methoxyethyl) (MOE); k = constrained ethyl (cEt); [5mC] = 5-methylcytosine; d = 2'-deoxy (DNA); m = 2'-O-methyl

System: Yap1 mRNA
Assay: Dose-dependent inhibition of human Yap1 in SNU-449 cells (Example 9, RTS36584)
Assay type: cell-based
Conditions: free uptake; for % UTC (Yap1 mRNA): approximately 48 hours; for IC50: linear regression on a log/linear plot
Summary of the method: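 Read-out was Yap1 mRNA (primer-probe RTS36584) normalised to total RNA by RIBOGREEN, given as % of untreated cells, with IC50 fitted by linear regression of log/linear data. Oligonucleotides were dosed by free uptake to SNU-449 cells, 10,000/well, for ~48 h.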

For “1197216 (kA*kA*kA*dG*dT*dG*dT*dA*dT*dG*dT*d[5mC]*dA*kG*kA*kA; antisense) [compound 1197216]”, the “% UTC (Yap1 mRNA)” value (31.3 nM) was 66 % UTC, the “% UTC (Yap1 mRNA)” value (125.0 nM) was 39 % UTC and the “% UTC (Yap1 mRNA)” value (500.0 nM) was 15 % UTC. For the same substance, the “% UTC (Yap1 mRNA)” value (2000.00 nM) was 4 % UTC and the IC50 was 0.1 µM.
“1198203 (kG*kG*dA*dA*dA*dT*dT*dG*dT*d[5mC]*dT*e[5mC]*eA*eT*kG*k[5mC]) [compound 1198203]” was tested, and the “% UTC (Yap1 mRNA)” value (31.3 nM) was 71 % UTC, the “% UTC (Yap1 mRNA)” value (125.0 nM) was 51 % UTC and the “% UTC (Yap1 mRNA)” value (500.0 nM) was 25 % UTC. The “% UTC (Yap1 mRNA)” value (2000.00 nM) was 11 % UTC and the IC50 was 0.1 µM.
For “1198268 (kA*kA*dG*dT*dG*dT*dA*dT*dG*dT*d[5mC]*eA*eG*eA*kA*kG; antisense) [compound 1198268]”, the “% UTC (Yap1 mRNA)” value (31.3 nM) was 83 % UTC, the “% UTC (Yap1 mRNA)” value (125.0 nM) was 52 % UTC and the “% UTC (Yap1 mRNA)” value (500.0 nM) was 17 % UTC. For the same substance, the “% UTC (Yap1 mRNA)” value (2000.00 nM) was 5 % UTC and the IC50 was 0.1 µM.
In the case of “1200820 (kG*kG*kA*dA*dG*mA*dT*d[5mC]*dT*dG*dA*dA*dA*k[5mC]*kT*k[5mC]; antisense) [compound 1200820]”, the “% UTC (Yap1 mRNA)” value (31.3 nM) is reported as 104 % UTC, the “% UTC (Yap1 mRNA)” value (125.0 nM) is reported as 69 % UTC and the “% UTC (Yap1 mRNA)” value (500.0 nM) is reported as 36 % UTC. The “% UTC (Yap1 mRNA)” value (2000.00 nM) was 17 % UTC and the IC50 was 0.3 µM.
“1198570 (kG*k[5mC]*kA*d[5mC]*dT*dT*dT*dT*dA*d[5mC]*dA*dT*kT*kA*kG*eG) [compound 1198570]” was tested, and the “% UTC (Yap1 mRNA)” value (31.3 nM) was 58 % UTC, the “% UTC (Yap1 mRNA)” value (125.0 nM) was 33 % UTC and the “% UTC (Yap1 mRNA)” value (500.0 nM) was 16 % UTC. The “% UTC (Yap1 mRNA)” value (2000.00 nM) was 9 % UTC and the IC50 was 0.04 µM.
For “1198642 (kT*kA*dT*dT*dA*dG*dA*dG*dT*dA*dT*dG*kT*eG*kG*e[5mC]; antisense) [compound 1198642]”, the “% UTC (Yap1 mRNA)” value (31.3 nM) was 79 % UTC, the “% UTC (Yap1 mRNA)” value (125.0 nM) was 48 % UTC and the “% UTC (Yap1 mRNA)” value (500.0 nM) was 15 % UTC. For the same substance, the “% UTC (Yap1 mRNA)” value (2000.00 nM) was 4 % UTC and the IC50 was 0.1 µM.
“1198398 (G_{ks}^{m}C_{ds}A_{ds}C_{ds}T_{ds}T_{ds}T_{ds}T_{ds}A_{ds}^{m}C_{ds}A_{ds}T_{ks}T_{es}A_{ks}G_{es}G_{k}; cEt, 2'-MOE, 5-methylcytosine, phosphorothioate modifications, as printed in the source, key not given here) [compound 1198398]” was tested, and the “% UTC (Yap1 mRNA)” value (31.3 nM) was 73 % UTC, the “% UTC (Yap1 mRNA)” value (125.0 nM) was 55 % UTC and the “% UTC (Yap1 mRNA)” value (500.0 nM) was 33 % UTC. The “% UTC (Yap1 mRNA)” value (2000.00 nM) was 18 % UTC and the IC50 was 0.2 µM.
In the case of “1198406 (kG*d[5mC]*dT*dT*dT*dG*dG*dA*dA*dG*dA*kT*e[5mC]*kT*eG*kA; antisense) [compound 1198406]”, the “% UTC (Yap1 mRNA)” value (31.3 nM) is reported as 70 % UTC, the “% UTC (Yap1 mRNA)” value (125.0 nM) is reported as 57 % UTC and the “% UTC (Yap1 mRNA)” value (500.0 nM) is reported as 31 % UTC. For the same substance, the “% UTC (Yap1 mRNA)” value (2000.00 nM) was 16 % UTC and the IC50 was 0.2 µM.
In the case of “1198875 (kA*kA*dA*dG*dT*dG*dT*dA*dT*dG*dT*k[5mC]*eA*kG*eA*kA; antisense) [compound 1198875]”, the “% UTC (Yap1 mRNA)” value (31.3 nM) is reported as 61 % UTC, the “% UTC (Yap1 mRNA)” value (125.0 nM) is reported as 23 % UTC and the “% UTC (Yap1 mRNA)” value (500.0 nM) is reported as 4 % UTC. The “% UTC (Yap1 mRNA)” value (2000.00 nM) was 1 % UTC and the IC50 was 0.04 µM.
With “1198358 (kT*kT*kT*dA*dA*dA*dG*dT*dG*dT*dA*dT*kG*eT*k[5mC]*eA; antisense) [compound 1198358]” the “% UTC (Yap1 mRNA)” value (31.3 nM) was 68 % UTC, the “% UTC (Yap1 mRNA)” value (125.0 nM) was 39 % UTC and the “% UTC (Yap1 mRNA)” value (500.0 nM) was 20 % UTC. The “% UTC (Yap1 mRNA)” value (2000.00 nM) was 8 % UTC and the IC50 was 0.1 µM.
For “1200806 (kT*kG*kA*dG*dG*mU*dA*dT*dA*dA*d[5mC]*dT*dG*kG*kG*k[5mC]; antisense) [compound 1200806]”, the “% UTC (Yap1 mRNA)” value (31.3 nM) was 91 % UTC, the “% UTC (Yap1 mRNA)” value (125.0 nM) was 54 % UTC and the “% UTC (Yap1 mRNA)” value (500.0 nM) was 34 % UTC. For the same substance, the “% UTC (Yap1 mRNA)” value (2000.00 nM) was 18 % UTC and the IC50 was 0.2 µM.
